# Measurements: PubChem BioAssay AID330 (DTP/NCI, 2004)
# Several values for one entry are separate records, joined by “and”; a condition that tells them apart may be missing. Identical values can stand only once. Toxic doses and inconclusive results are not listed.
# System: P388 leukemia ip, CD2F1 mice, survival T/C
# Test: NCI In Vivo Anticancer Drug Screen. Data for tumor model P388 Leukemia (intraperitoneal) in CD2F1 (CDF1) mice
# Settings: endpoint: median survival time, higher = longer survival
# In short: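 Mice carrying the transplanted tumor received test compound or vehicle. Survival was recorded in each group, and the value is the treated-group measurement divided by that of the vehicle-treated control group.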
# [1] = dose: 50.0 mg/kg/injection, schedule: Q01DX005 (ip), vehicle: saline with Tween-80
# [2] = dose: 100.0 mg/kg/injection, schedule: Q01DX005 (ip), vehicle: saline with Tween-80
# [3] = dose: 200.0 mg/kg/injection, schedule: Q01DX005 (ip), vehicle: saline with Tween-80
# [4] = dose: 50.0 mg/kg/injection, schedule: Q01DX009 (ip), vehicle: Klucel (hydroxypropylcellulose) (HPC)
# [5] = dose: 100.0 mg/kg/injection, schedule: Q01DX009 (ip), vehicle: Klucel (hydroxypropylcellulose) (HPC)
# [6] = dose: 200.0 mg/kg/injection, schedule: Q01DX009 (ip), vehicle: Klucel (hydroxypropylcellulose) (HPC)
# [7] = dose: 50.0 mg/kg/injection, schedule: Q01DX009 (ip), vehicle: other
# [8] = dose: 100.0 mg/kg/injection, schedule: Q01DX009 (ip), vehicle: other
# [9] = dose: 200.0 mg/kg/injection, schedule: Q01DX009 (ip), vehicle: other
# [10] = dose: 400.0 mg/kg/injection, schedule: Q01DX009 (ip), vehicle: other
# [11] = dose: 100.0 mg/kg/injection, schedule: Q01DX009 (ip), vehicle: saline with Tween-80
# [12] = dose: 200.0 mg/kg/injection, schedule: Q01DX009 (ip), vehicle: saline with Tween-80
structure (smiles),measurement,setting,value
COC(=O)C[Si](C)(C)C,T/C,[1],105 % of control
same,T/C,[2],98 % of control
same,T/C,[3],95 % of control
NC(=N\O)/C(N)=N\O,T/C,[4],100 % of control
same,T/C,[5],98 % of control
same,T/C,[6],106 % of control
Cn1nc(-c2ccc(S(=O)(=O)F)cc2)s/c1=N/NC(=O)c1ccccc1,T/C,"dose: 60.0 mg/kg/injection, schedule: Q01DX005 (ip), vehicle: Klucel + Tween-80",87 % of control
same,T/C,"dose: 120.0 mg/kg/injection, schedule: Q01DX005 (ip), vehicle: Klucel + Tween-80",92 % of control
COc1cc(NS(=O)(=O)c2ccc(NC(C)c3ccc4cccnc4c3O)cc2)nc(OC)n1 (stereo unspecified),T/C,"dose: 60.0 mg/kg/injection, schedule: Q01DX005 (ip), vehicle: saline with Tween-80",98 % of control
same,T/C,"dose: 120.0 mg/kg/injection, schedule: Q01DX005 (ip), vehicle: saline with Tween-80",99 % of control
same,T/C,"dose: 240.0 mg/kg/injection, schedule: Q01DX005 (ip), vehicle: saline with Tween-80",96 % of control
NC(=O)NNc1cccc(Cl)n1,T/C,"dose: 100.0 mg/kg/injection, schedule: Q01DX001 (ip), vehicle: Klucel (hydroxypropylcellulose) (HPC)",96 % of control
same,T/C,"dose: 200.0 mg/kg/injection, schedule: Q01DX001 (ip), vehicle: Klucel (hydroxypropylcellulose) (HPC)",101 % of control
same,T/C,"dose: 400.0 mg/kg/injection, schedule: Q01DX001 (ip), vehicle: Klucel (hydroxypropylcellulose) (HPC)",97 % of control
Brc1cc2c(cc1C=Nc1ccc(OCc3ccccc3)cc1)OCO2,T/C,"dose: 25.0 mg/kg/injection, schedule: Q01DX009 (ip), vehicle: other",98 % of control
same,T/C,[7],103 % of control
same,T/C,[8],97 % of control
same,T/C,[9],95 % of control
same,T/C,[10],86 % of control
CCOC(=O)CC(C)(O)C1CC1 (stereo unspecified),T/C,"dose: 25.0 mg/kg/injection, schedule: Q01DX009 (ip), vehicle: Klucel (hydroxypropylcellulose) (HPC)",96 % of control
same,T/C,[4],101 % of control
same,T/C,[5],105 % of control and 94 % of control
same,T/C,[6],103 % of control and 122 % of control
COc1cc(C2c3cc(O)c(OC)cc3CC(C(=O)O)C2CO)ccc1O (stereo unspecified),T/C,[1],100 % of control
same,T/C,[2],97 % of control
same,T/C,[3],98 % of control
CN(C)C[N+](C)(C)Cc1ccc(C[N+](C)(C)C[N+](C)(C)Cc2ccc(CCl)cc2)cc1,T/C,"dose: 0.19 mg/kg/injection, schedule: Q04DX003 (ip), vehicle: saline",100 % of control
same,T/C,"dose: 0.39 mg/kg/injection, schedule: Q04DX003 (ip), vehicle: saline",94 % of control
same,T/C,"dose: 0.78 mg/kg/injection, schedule: Q04DX003 (ip), vehicle: saline",103 % of control and 88 % of control
same,T/C,"dose: 1.56 mg/kg/injection, schedule: Q04DX003 (ip), vehicle: saline",88 % of control
same,T/C,"dose: 3.12 mg/kg/injection, schedule: Q04DX003 (ip), vehicle: saline",99 % of control
Nc1ccc(S(=O)(=O)Nc2ccc3oc(=O)[nH]c3c2)cc1,T/C,"dose: 50.0 mg/kg/injection, schedule: Q04DX002 (ip), vehicle: Klucel (hydroxypropylcellulose) (HPC)",101 % of control
same,T/C,"dose: 100.0 mg/kg/injection, schedule: Q04DX002 (ip), vehicle: Klucel (hydroxypropylcellulose) (HPC)",104 % of control
same,T/C,"dose: 200.0 mg/kg/injection, schedule: Q04DX002 (ip), vehicle: Klucel (hydroxypropylcellulose) (HPC)",104 % of control
CCCCCCCC/C=C\CCCCCCCCCCCC(=O)O,T/C,[4],100 % of control
same,T/C,[7],100 % of control
same,T/C,[5],92 % of control
same,T/C,[8],106 % of control
same,T/C,[6],91 % of control
same,T/C,[9],102 % of control
same,T/C,"dose: 400.0 mg/kg/injection, schedule: Q01DX009 (ip), vehicle: Klucel (hydroxypropylcellulose) (HPC)",98 % of control
same,T/C,[10],94 % of control
Nc1cc(Cl)c(N=Nc2ccccc2)c(N)n1,T/C,[11],103 % of control
same,T/C,[12],107 % of control
same,T/C,"dose: 400.0 mg/kg/injection, schedule: Q01DX009 (ip), vehicle: saline with Tween-80",94 % of control
COc1cc(C)c(OC)c(CC=C(C)CC(=O)C[C@@]2(C)CCC[C@@]2(C)C(=O)CCC(C)(C)O)c1 (mixture of isomers),T/C,"dose: 25.0 mg/kg/injection, schedule: Q01DX005 (ip), vehicle: saline with Tween-80",93 % of control
same,T/C,[1],91 % of control
same,T/C,[2],95 % of control
COc1cccc2c1C(=O)c1c(O)c3c(c(O)c1C2=O)C[C@@](O)(C(C)=O)C[C@@H]3OC1CC(NC(C)=O)C(O)C(C)O1 (stereo partly specified),T/C,"dose: 2.0 mg/kg/injection, schedule: Q01DX009 (ip), vehicle: saline",113 % of control
same,T/C,"dose: 3.13 mg/kg/injection, schedule: Q01DX009 (ip), vehicle: saline",157 % of control
same,T/C,"dose: 6.25 mg/kg/injection, schedule: Q01DX009 (ip), vehicle: saline",109 % of control
same,T/C,"dose: 12.5 mg/kg/injection, schedule: Q01DX009 (ip), vehicle: saline",166 % of control
NC(=S)N/N=C/c1cccc(CC(O)(C(F)(F)F)C(F)(F)F)n1,T/C,"dose: 12.5 mg/kg/injection, schedule: Q04DX003 (ip), vehicle: saline with Tween-80",100 % of control
same,T/C,"dose: 25.0 mg/kg/injection, schedule: Q04DX003 (ip), vehicle: saline with Tween-80",87 % of control
CN(C)CC(O)C(=O)O (stereo unspecified),T/C,"dose: 25.0 mg/kg/injection, schedule: Q01DX005 (ip), vehicle: saline",96 % of control
same,T/C,"dose: 50.0 mg/kg/injection, schedule: Q01DX005 (ip), vehicle: saline",98 % of control
same,T/C,"dose: 100.0 mg/kg/injection, schedule: Q01DX005 (ip), vehicle: saline",95 % of control
same,T/C,"dose: 200.0 mg/kg/injection, schedule: Q01DX005 (ip), vehicle: saline",96 % of control
NCCNCC(O)CO (stereo unspecified),T/C,"dose: 50.0 mg/kg/injection, schedule: Q01DX005 (ip), vehicle: saline + Tween-80 + alcohol",102 % of control
same,T/C,"dose: 100.0 mg/kg/injection, schedule: Q01DX005 (ip), vehicle: saline + Tween-80 + alcohol",102 % of control
same,T/C,"dose: 200.0 mg/kg/injection, schedule: Q01DX005 (ip), vehicle: saline + Tween-80 + alcohol",99 % of control
S=c1nn[nH]c2[nH]ncc12,T/C,"dose: 100.0 mg/kg/injection, schedule: Q01DX001 (ip), vehicle: saline with Tween-80",94 % of control
same,T/C,"dose: 200.0 mg/kg/injection, schedule: Q01DX001 (ip), vehicle: saline with Tween-80",102 % of control
same,T/C,"dose: 400.0 mg/kg/injection, schedule: Q01DX001 (ip), vehicle: saline with Tween-80",108 % of control
COc1cc(C)c2[nH]c3c(C)c(Cl)ccc3c(=O)c2c1,T/C,"dose: 50.0 mg/kg/injection, schedule: Q01DX005 (ip), vehicle: Klucel + Tween-80",97 % of control
same,T/C,"dose: 100.0 mg/kg/injection, schedule: Q01DX005 (ip), vehicle: Klucel + Tween-80",93 % of control
same,T/C,"dose: 200.0 mg/kg/injection, schedule: Q01DX005 (ip), vehicle: Klucel + Tween-80",96 % of control
c1ccc2sc(SSN3CCOCC3)nc2c1,T/C,"dose: 50.0 mg/kg/injection, schedule: Q01DX009 (ip), vehicle: suspension in saline",97 % of control
same,T/C,"dose: 100.0 mg/kg/injection, schedule: Q01DX009 (ip), vehicle: suspension in saline",106 % of control
same,T/C,"dose: 200.0 mg/kg/injection, schedule: Q01DX009 (ip), vehicle: suspension in saline",95 % of control
same,T/C,"dose: 400.0 mg/kg/injection, schedule: Q01DX009 (ip), vehicle: suspension in saline",90 % of control
CCOC(=O)c1ccc(NC(CCl)=NC(C)(C)C)cc1,T/C,"dose: 50.0 mg/kg/injection, schedule: Q01DX009 (ip), vehicle: saline with Tween-80",86 % of control
same,T/C,[11],100 % of control
same,T/C,[12],90 % of control
C#C/C=C/CC1OC(C(Br)CC)/C=C\CCC1Cl (stereo unspecified),T/C,"dose: 2.0 mg/kg/injection, schedule: Q01DX009 (ip), vehicle: Klucel (hydroxypropylcellulose) (HPC)",94 % of control
same,T/C,"dose: 4.0 mg/kg/injection, schedule: Q01DX009 (ip), vehicle: Klucel (hydroxypropylcellulose) (HPC)",98 % of control
same,T/C,"dose: 8.0 mg/kg/injection, schedule: Q01DX009 (ip), vehicle: Klucel (hydroxypropylcellulose) (HPC)",103 % of control
same,T/C,"dose: 16.0 mg/kg/injection, schedule: Q01DX009 (ip), vehicle: Klucel (hydroxypropylcellulose) (HPC)",94 % of control
COC(=O)c1cc(OC)cc(C)c1OC(=Nc1cccc(Cl)c1C)c1ccccc1,T/C,"dose: 50.0 mg/kg/injection, schedule: Q01DX005 (ip), vehicle: Klucel (hydroxypropylcellulose) (HPC)",97 % of control
same,T/C,"dose: 100.0 mg/kg/injection, schedule: Q01DX005 (ip), vehicle: Klucel (hydroxypropylcellulose) (HPC)",92 % of control
same,T/C,"dose: 200.0 mg/kg/injection, schedule: Q01DX005 (ip), vehicle: Klucel (hydroxypropylcellulose) (HPC)",96 % of control
